Measured values as given in the Deep4Chem optical property database.
Blank lines part the entries; values can stand above or below the compound they belong to.

Assay: solvent given as SMILES

SMILES: COc1ccc(N(c2ccc(OC)cc2)c2ccc3c4cccc5c(N(c6ccc(OC)cc6)c6ccc(OC)cc6)ccc(c6cccc2c63)c54)cc1
absorption maximum (in C1CCCCC1): 519 nm
absorption maximum (in C1CCOC1): 515 nm
absorption maximum (in CC#N): 508 nm
absorption maximum (in Cc1ccccc1): 519 nm
absorption maximum (in ClCCl): 514 nm

SMILES: CC(C)(C)C#Cc1cc2c(C#CC(C)(C)C)c(C#CC(C)(C)C)c3cc(C#CC(C)(C)C)cc4c(C#CC(C)(C)C)c(C#CC(C)(C)C)c(c1)c2c34
absorption maximum (in ClCCl): 383 nm

SMILES: CCO[B-]1(OCC)n2c(C)cc(C)c2C(c2ccc(I)cc2)=C2C(C)=CC(C)=[N+]21
absorption maximum (in ClC(Cl)Cl): 505 nm

SMILES: CCCCCCCCCCCCn1nnc(-c2ccc(C#Cc3ccc(C#Cc4ccc(-c5nnn(CCCCCCCCCCCC)n5)cc4)c4nc5c6ccccc6c6ccccc6c5nc34)cc2)n1
absorption maximum (in C1CCOC1): 428 nm
absorption maximum (in Cc1ccccc1): 428 nm
absorption maximum (in ClCCl): 428 nm

SMILES: CCC1=C(C)C2=Cc3cc4c(cc3B(O)N2C1=O)OCO4
absorption maximum (in CC#N): 383 nm
absorption maximum (in CO): 381 nm
absorption maximum (in CS(C)=O): 384 nm
absorption maximum (in ClC(Cl)Cl): 389 nm

SMILES: Cc1cc(C)c2c(c1)nc1c(=O)n(C)c(=O)nc-1n2C
absorption maximum (in CC#N): 448 nm

SMILES: COc1ccccc1-c1nc2c([nH]1)C1=CC(=O)S[C@]1(C)[C@@]1(C)SC(=O)C=C21
absorption maximum (in CC#N): 390 nm

SMILES: c1cc2c3c(cccc3c1)NC(c1ccc3ccc4cccc5ccc1c3c45)N2
absorption maximum (in CC#N): 341 nm
absorption maximum (in CO): 340 nm
absorption maximum (in CS(C)=O): 344 nm
absorption maximum (in Cc1ccccc1): 344 nm

SMILES: O=C(O)C1=C/C(=C/C=[NH+]/c2ccc3c(C(F)(F)F)cc(=O)oc3c2)CC(C(=O)O)N1 (centres undefined)
absorption maximum (in O): 519 nm

SMILES: c1ccc(-c2ccc(-c3ccc(N(c4ccccc4)c4ccccc4)cc3)c3nsnc23)cc1
absorption maximum (in C1CCOC1): 437 nm
absorption maximum (in CC(C)=O): 424 nm
absorption maximum (in CCCCCC): 438 nm
absorption maximum (in CCOCC): 435 nm

SMILES: Cc1nnc(-c2ccc(-n3c4ccccc4c4ccccc43)cc2)o1
absorption maximum (in Cc1ccccc1): 340 nm

SMILES: CON(C)C(=O)c1ccc(/C=C/c2ccc(/C=C/c3ccc(C(=O)N(C)OC)cc3)cc2)cc1
absorption maximum (in c1ccccc1): 368 nm

SMILES: COc1cc(OC)cc(C2=[O+][B-](F)(F)OC(c3cccs3)=C2)c1
absorption maximum (in ClCCl): 391 nm

SMILES: [O-][n+]1c(/C=C/c2ccc3ccccc3c2)nc(N2CCOCC2)c2c1CCCC2
absorption maximum (in ClCCl): 400 nm

SMILES: COc1ccc2cc(/C=C/C3=C4CCc5ccccc5C4=[O+][B-](F)(F)O3)ccc2c1
absorption maximum (in ClCCl): 479 nm

SMILES: CN(C)c1ccc(/C=C/c2ccc(C#N)cc2)cc1
absorption maximum (in C1CCOC1): 385 nm
absorption maximum (in CC#N): 383 nm
absorption maximum (in CCCC#N): 386 nm
absorption maximum (in CCCCCC): 378 nm
absorption maximum (in CCCCOCCCC): 380 nm
absorption maximum (in CCO): 383 nm
absorption maximum (in CCOCC): 380 nm

SMILES: O=C(O)CCCCCn1c2ccccc2c(=O)c2cc(Br)ccc21
absorption maximum (in O): 439 nm

SMILES: CCN(CC)c1ccc2cc(/C=C/C(O)=C/C(C)=O)c(=O)oc2c1
absorption maximum (in CC#N): 456 nm
absorption maximum (in CC(C)=O): 456 nm
absorption maximum (in CCOC(C)=O): 447 nm
absorption maximum (in CO): 458 nm
absorption maximum (in CS(C)=O): 470 nm
absorption maximum (in Cc1ccccc1): 447 nm
absorption maximum (in ClC(Cl)Cl): 455 nm
absorption maximum (in ClCCl): 456 nm

Next, values leading:

absorption maximum (in ClCCl): 525 nm
SMILES: CCN1c2ccc(C3=CC(c4ccccc4)=[O+][B-](F)(F)O3)cc2Sc2cc(C3=CC(c4ccccc4)=[O+][B-](F)(F)O3)ccc21

absorption maximum (in ClCCl): 528 nm
SMILES: CCCCCCCCCCC1(CCCCCCCCCC)c2cc(-c3nc4ccccc4s3)ccc2-c2ccc(N3C(=O)c4ccc5c6ccc7c8c(ccc(c9ccc(c4c59)C3=O)c86)C(=O)N(c3ccc4c(c3)C(CCCCCCCCCC)(CCCCCCCCCC)c3cc(-c5nc6ccccc6s5)ccc3-4)C7=O)cc21

absorption maximum (in CO): 540 nm
SMILES: CCOC(=O)CCCCCn1c2ccc(F)cc2c(=O)c2cc3c(cc21)c(=O)c1cc(F)ccc1n3CCCCCC(=O)OCC

absorption maximum (in C1CCOC1): 342 nm
SMILES: c1ccc(-n2c(-c3c(-n4c5ccccc5c5ccccc54)cccc3-n3c4ccccc4c4ccccc43)nc3ccccc32)cc1

absorption maximum (in ClC(Cl)Cl): 480 nm
SMILES: COc1ccc(-c2oc3cccc4c5c(-c6ccc(OC)cc6)/c(=N/S(=O)(=O)C(F)(F)F)oc6cccc(c2c34)c65)cc1

absorption maximum (in ClCCl): 405 nm
SMILES: CCCCCCc1cc2c3c(c1)c(=C(c1ccccc1)c1ccccc1)c1cc(CCCCCC)cc4c1N3c1c(cc(CCCCCC)cc1c4=C(c1ccccc1)c1ccccc1)c2=C(c1ccccc1)c1ccccc1

absorption maximum (in ClC(Cl)Cl): 371 nm
SMILES: CCCCC1(c2ccccc2)Nc2c(-c3ccc(N(C)C)cc3)ccc(-c3ccc(N(C)C)cc3)c2N=C1c1ccccc1 (centres undefined)

absorption maximum (in CO): 760 nm
SMILES: O=C(O)CCCCCn1/c(=C/C=C/C2=[N+](CCCCCC(=O)O)c3cccc4cccc2c34)c2cccc3cccc1c32
